Reference: patent publication US20260166128A1, “HUMAN AMYLIN ANALOG, AND DERIVATIVE THEREOF AND USE THEREOF” (priority 2022, published 2026)
Numbered stars: 1 amine (or outer) side, 2 acyl side, 3 side chain; on linkers, the order of the positions; unused ones are H or OH. Bridge positions count the residues as written; N and C are the ends. Square brackets hold non-standard residues; d marks the D form. Side chains are listed from the residue outwards. Peptide text beside a SMILES is read from it. * marks the point of attachment. C20 diacid = O=C(O)CCCCCCCCCCCCCCCCCCC(=O)*; C18 diacid = O=C(O)CCCCCCCCCCCCCCCCC(=O)*; γGlu = O=C(O)[C@H](CCC(=O)[*:2])N[*:1]; Hyp = O=C(O)[C@@H]1C[C@@H](O)CN1; AEEA = NCCOCCOCC(=O)O

Target: T1, human amylin receptor (Homo sapiens, UniProt O60896+P30988)
T1 construct: host or cells: CHO-K1/Ga15/AMY3 cells, further stably transfected with a CRE-luciferase plasmid
T1 sequence (P30988 25-474): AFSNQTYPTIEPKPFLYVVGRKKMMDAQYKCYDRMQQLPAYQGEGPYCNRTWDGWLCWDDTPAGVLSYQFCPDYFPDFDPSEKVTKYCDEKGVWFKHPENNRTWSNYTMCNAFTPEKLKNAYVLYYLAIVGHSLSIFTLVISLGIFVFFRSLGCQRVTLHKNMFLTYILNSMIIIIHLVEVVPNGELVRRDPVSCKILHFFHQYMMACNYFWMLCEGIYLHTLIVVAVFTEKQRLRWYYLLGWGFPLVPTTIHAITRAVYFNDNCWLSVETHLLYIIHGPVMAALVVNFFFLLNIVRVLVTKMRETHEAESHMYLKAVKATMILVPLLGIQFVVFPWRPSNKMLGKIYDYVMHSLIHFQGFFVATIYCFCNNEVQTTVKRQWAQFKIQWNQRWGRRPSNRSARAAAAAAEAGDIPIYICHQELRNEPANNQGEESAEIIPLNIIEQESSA
T1 sequence (O60896 24-148 partner): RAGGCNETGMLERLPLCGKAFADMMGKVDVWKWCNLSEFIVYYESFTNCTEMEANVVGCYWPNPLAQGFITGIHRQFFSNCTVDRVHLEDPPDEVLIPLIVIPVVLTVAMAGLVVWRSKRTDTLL
Assay: Luciferase assay of amylin derivatives in amylin receptor/CRE-luc CHO cell line
Format: cell-based
Settings: CHO-K1/Ga15/AMY3 CRE-luc cells, 24 hours incubation, F12 medium containing 10% FBS; read-out: EC50
Protocol: The experiment was intended to detect the activity or efficacy of the amylin derivatives on a human amylin receptor in vitro by luciferase assay.
50 μL of growth medium (F12 medium containing 10% FBS) was added into each well of a white 96-well plate, and the stably transfected amylin/CRE-lue CHO cells were inoculated into the white 96-well plate at a density of about 20,000 cells/well for activity determination.

SMILES | EC50
CC[C@H](C)[C@H](NC(=O)[C@@H]1CCCN1C(=O)CNC(=O)[C@H](CC(C)C)NC(=O)[C@H](CC(N)=O)NC(=O)[C@H](CC(N)=O)NC(=O)[C@H](CCCCNC(=O)COCCOCCNC(=O)CC[C@H](NC(=O)CCCCCCCCCCCCCCCCCCC(=O)O)C(=O)O)NC(=O)[C@H](CO)NC(=O)[C@H](Cc1c[nH]cn1)NC(=O)[C@H](CCCNC(=N)N)NC(=O)[C@H](CC(C)C)NC(=O)[C@H](Cc1ccccc1)NC(=O)[C@H](CC(=O)O)NC(=O)[C@H](C)NC(=O)[C@H](CC(C)C)NC(=O)[C@H](CCCNC(=N)N)NC(=O)[C@H](CCC(N)=O)NC(=O)[C@@H](NC(=O)[C@H](C)NC(=O)[C@@H]1CSSC[C@H](NC(=O)[C@@H](N)CCCNC(=N)N)C(=O)N[C@@H](CC(N)=O)C(=O)N[C@@H]([C@@H](C)O)C(=O)N[C@@H](C)C(=O)N[C@@H]([C@@H](C)O)C(=O)N1)[C@@H](C)O)C(=O)N[C@@H](CC(C)C)C(=O)N1CCC[C@H]1C(=O)N1CCC[C@H]1C(=O)N[C@H](C(=O)N[C@@H](CC(N)=O)C(=O)N[C@H](C(=O)NCC(=O)N[C@@H](CO)C(=O)N[C@@H](CC(N)=O)C(=O)N[C@H](C(=O)N1C[C@H](O)C[C@H]1C(N)=O)[C@@H](C)O)C(C)C)[C@@H](C)O [PD116] (H-RCNTATCATQRLADFLRHSK([AEEA-γGlu-C20 diacid])NNLGPILPPTNVGSNT[Hyp]-NH2; disulfide 2-7) | 0.033 nM
CC[C@H](C)[C@H](NC(=O)[C@@H]1CCCN1C(=O)CNC(=O)[C@H](CC(C)C)NC(=O)[C@H](CC(N)=O)NC(=O)[C@H](CC(N)=O)NC(=O)[C@H](CO)NC(=O)[C@H](CCCCNC(=O)COCCOCCNC(=O)CC[C@H](NC(=O)CCCCCCCCCCCCCCCCCCC(=O)O)C(=O)O)NC(=O)[C@H](Cc1c[nH]cn1)NC(=O)[C@H](CCCNC(=N)N)NC(=O)[C@H](CC(C)C)NC(=O)[C@H](Cc1ccccc1)NC(=O)[C@H](CC(=O)O)NC(=O)[C@H](C)NC(=O)[C@H](CC(C)C)NC(=O)[C@H](CCCNC(=N)N)NC(=O)[C@H](CCC(N)=O)NC(=O)[C@@H](NC(=O)[C@H](C)NC(=O)[C@@H]1CSSC[C@H](NC(=O)[C@@H](N)CCCNC(=N)N)C(=O)N[C@@H](CC(N)=O)C(=O)N[C@@H]([C@@H](C)O)C(=O)N[C@@H](C)C(=O)N[C@@H]([C@@H](C)O)C(=O)N1)[C@@H](C)O)C(=O)N[C@@H](CC(C)C)C(=O)N1CCC[C@H]1C(=O)N1CCC[C@H]1C(=O)N[C@H](C(=O)N[C@@H](CC(N)=O)C(=O)N[C@H](C(=O)NCC(=O)N[C@@H](CO)C(=O)N[C@@H](CC(N)=O)C(=O)N[C@H](C(=O)N1C[C@H](O)C[C@H]1C(N)=O)[C@@H](C)O)C(C)C)[C@@H](C)O [PD118] (H-RCNTATCATQRLADFLRHK([AEEA-γGlu-C20 diacid])SNNLGPILPPTNVGSNT[Hyp]-NH2; disulfide 2-7) | 0.032 nM
CC[C@H](C)[C@H](NC(=O)[C@@H]1CCCN1C(=O)CNC(=O)[C@H](CC(C)C)NC(=O)[C@H](CC(N)=O)NC(=O)[C@H](CC(N)=O)NC(=O)[C@H](CO)NC(=O)[C@H](CO)NC(=O)[C@H](Cc1c[nH]cn1)NC(=O)[C@H](CCCNC(=N)N)NC(=O)[C@H](CC(C)C)NC(=O)[C@H](Cc1ccccc1)NC(=O)[C@H](CC(=O)O)NC(=O)[C@H](C)NC(=O)[C@H](CC(C)C)NC(=O)[C@H](CCCNC(=N)N)NC(=O)[C@H](CCC(N)=O)NC(=O)[C@@H](NC(=O)[C@H](C)NC(=O)[C@@H]1CSSC[C@H](NC(=O)[C@H](CCCCN)NC(=O)COCCOCCNC(=O)CC[C@H](NC(=O)CCCCCCCCCCCCCCCCCCC(=O)O)C(=O)O)C(=O)N[C@@H](CC(N)=O)C(=O)N[C@@H]([C@@H](C)O)C(=O)N[C@@H](C)C(=O)N[C@@H]([C@@H](C)O)C(=O)N1)[C@@H](C)O)C(=O)N[C@@H](CC(C)C)C(=O)N1CCC[C@H]1C(=O)N1CCC[C@H]1C(=O)N[C@H](C(=O)N[C@@H](CC(N)=O)C(=O)N[C@H](C(=O)NCC(=O)N[C@@H](CO)C(=O)N[C@@H](CC(N)=O)C(=O)N[C@H](C(=O)N1C[C@H](O)C[C@H]1C(N)=O)[C@@H](C)O)C(C)C)[C@@H](C)O [PD122] ({C20 diacid-γGlu-AEEA}-KCNTATCATQRLADFLRHSSNNLGPILPPTNVGSNT[Hyp]-NH2; disulfide 2-7) | 0.048 nM
CC[C@H](C)[C@H](NC(=O)[C@@H]1CCCN1C(=O)[C@H](Cc1c[nH]cn1)NC(=O)[C@H](CC(C)C)NC(=O)[C@H](CC(N)=O)NC(=O)[C@H](CC(N)=O)NC(=O)[C@H](CO)NC(=O)[C@H](CO)NC(=O)[C@H](Cc1c[nH]cn1)NC(=O)[C@H](CCCNC(=N)N)NC(=O)[C@H](CC(C)C)NC(=O)[C@H](Cc1ccccc1)NC(=O)[C@H](CC(=O)O)NC(=O)[C@H](C)NC(=O)[C@H](CC(C)C)NC(=O)[C@H](CCCNC(=N)N)NC(=O)[C@H](CCC(N)=O)NC(=O)[C@@H](NC(=O)[C@H](C)NC(=O)[C@@H]1CSSC[C@H](NC(=O)[C@H](CCCCN)NC(=O)CC[C@H](NC(=O)CCCCCCCCCCCCCCCCCCC(=O)O)C(=O)O)C(=O)N[C@@H](CC(N)=O)C(=O)N[C@@H]([C@@H](C)O)C(=O)N[C@@H](C)C(=O)N[C@@H]([C@@H](C)O)C(=O)N1)[C@@H](C)O)C(=O)N[C@@H](CC(C)C)C(=O)N1CCC[C@H]1C(=O)N1CCC[C@H]1C(=O)N[C@H](C(=O)N[C@@H](CC(N)=O)C(=O)N[C@H](C(=O)NCC(=O)N[C@@H](CO)C(=O)N[C@@H](CC(N)=O)C(=O)N[C@H](C(=O)N1C[C@H](O)C[C@H]1C(N)=O)[C@@H](C)O)C(C)C)[C@@H](C)O [PD159] ({C20 diacid-γGlu}-KCNTATCATQRLADFLRHSSNNLHPILPPTNVGSNT[Hyp]-NH2; disulfide 2-7) | 0.037 nM

Compounds with a lower EC50, results first:

EC50 | SMILES
0.018 nM | CC[C@H](C)[C@H](NC(=O)[C@H](CCCCNC(=O)COCCOCCNC(=O)CC[C@H](NC(=O)CCCCCCCCCCCCCCCCC(=O)O)C(=O)O)NC(=O)CNC(=O)[C@H](CC(C)C)NC(=O)[C@H](CC(N)=O)NC(=O)[C@H](CC(N)=O)NC(=O)[C@H](CO)NC(=O)[C@H](CO)NC(=O)[C@H](Cc1c[nH]cn1)NC(=O)[C@H](CCCNC(=N)N)NC(=O)[C@H](CC(C)C)NC(=O)[C@H](Cc1ccccc1)NC(=O)[C@H](CC(=O)O)NC(=O)[C@H](C)NC(=O)[C@H](CC(C)C)NC(=O)[C@H](CCCNC(=N)N)NC(=O)[C@H](CCC(N)=O)NC(=O)[C@@H](NC(=O)[C@H](C)NC(=O)[C@@H]1CSSC[C@H](NC(=O)[C@@H](N)CCCNC(=N)N)C(=O)N[C@@H](CC(N)=O)C(=O)N[C@@H]([C@@H](C)O)C(=O)N[C@@H](C)C(=O)N[C@@H]([C@@H](C)O)C(=O)N1)[C@@H](C)O)C(=O)N[C@@H](CC(C)C)C(=O)N1CCC[C@H]1C(=O)N1CCC[C@H]1C(=O)N[C@H](C(=O)N[C@@H](CC(N)=O)C(=O)N[C@H](C(=O)NCC(=O)N[C@@H](CO)C(=O)N[C@@H](CC(N)=O)C(=O)N[C@H](C(=O)N1C[C@H](O)C[C@H]1C(N)=O)[C@@H](C)O)C(C)C)[C@@H](C)O [PD121] (H-RCNTATCATQRLADFLRHSSNNLGK([AEEA-γGlu-C18 diacid])ILPPTNVGSNT[Hyp]-NH2; disulfide 2-7)
0.008 nM | CC[C@H](C)[C@H](NC(=O)[C@@H]1CCCN1C(=O)CNC(=O)[C@H](CC(C)C)NC(=O)[C@H](CC(N)=O)NC(=O)[C@H](CC(N)=O)NC(=O)[C@H](CO)NC(=O)[C@H](CO)NC(=O)[C@H](Cc1c[nH]cn1)NC(=O)[C@H](CCCNC(=N)N)NC(=O)[C@H](CC(C)C)NC(=O)[C@H](Cc1ccccc1)NC(=O)[C@H](CC(=O)O)NC(=O)[C@H](C)NC(=O)[C@H](CC(C)C)NC(=O)[C@H](CCCNC(=N)N)NC(=O)[C@H](CCC(N)=O)NC(=O)[C@@H](NC(=O)[C@H](C)NC(=O)[C@@H]1CSSC[C@H](NC(=O)[C@H](CCCCN)NC(=O)CC[C@H](NC(=O)CCCCCCCCCCCCCCCCC(=O)O)C(=O)O)C(=O)N[C@@H](CC(N)=O)C(=O)N[C@@H]([C@@H](C)O)C(=O)N[C@@H](C)C(=O)N[C@@H]([C@@H](C)O)C(=O)N1)[C@@H](C)O)C(=O)N[C@@H](CC(C)C)C(=O)N1CCC[C@H]1C(=O)N1CCC[C@H]1C(=O)N[C@H](C(=O)N[C@@H](CC(N)=O)C(=O)N[C@H](C(=O)NCC(=O)N[C@@H](CO)C(=O)N[C@@H](CC(N)=O)C(=O)N[C@H](C(=O)N1C[C@H](O)C[C@H]1C(N)=O)[C@@H](C)O)C(C)C)[C@@H](C)O [PD124] ({C18 diacid-γGlu}-KCNTATCATQRLADFLRHSSNNLGPILPPTNVGSNT[Hyp]-NH2; disulfide 2-7)
0.029 nM | CC[C@H](C)[C@H](NC(=O)[C@@H]1CCCN1C(=O)CNC(=O)[C@H](Cc1ccccc1)NC(=O)[C@H](CC(N)=O)NC(=O)[C@H](CC(N)=O)NC(=O)[C@H](CO)NC(=O)[C@H](CO)NC(=O)[C@H](Cc1c[nH]cn1)NC(=O)[C@@H](NC(=O)[C@H](CC(C)C)NC(=O)[C@H](Cc1ccccc1)NC(=O)[C@H](CC(N)=O)NC(=O)[C@H](C)NC(=O)[C@H](CC(C)C)NC(=O)[C@H](CCCNC(=N)N)NC(=O)[C@H](CCC(N)=O)NC(=O)[C@@H](NC(=O)[C@H](C)NC(=O)[C@@H]1CSSC[C@H](NC(=O)[C@H](CCCCN)NC(=O)CC[C@H](NC(=O)CCCCCCCCCCCCCCCCCCC(=O)O)C(=O)O)C(=O)N[C@@H](CC(N)=O)C(=O)N[C@@H]([C@@H](C)O)C(=O)N[C@@H](C)C(=O)N[C@@H]([C@@H](C)O)C(=O)N1)[C@@H](C)O)C(C)C)C(=O)N[C@@H](CC(C)C)C(=O)N1CCC[C@H]1C(=O)N1CCC[C@H]1C(=O)N[C@H](C(=O)N[C@@H](CC(N)=O)C(=O)N[C@H](C(=O)NCC(=O)N[C@@H](CO)C(=O)N[C@@H](CC(N)=O)C(=O)N[C@H](C(=O)N[C@@H](Cc1ccc(O)cc1)C(N)=O)[C@@H](C)O)C(C)C)[C@@H](C)O [PD156] ({C20 diacid-γGlu}-KCNTATCATQRLANFLVHSSNNFGPILPPTNVGSNTY-NH2; disulfide 2-7 (inferred))
